Values of other authors in patent US8524749B2, “Controlled release compositions of tizanidine” (ALZA Corporation, priority 2007, dated 2013).

Conditions: doses of 0.5-0.7 g/kg alcohol; comparison data

- Peak impairment in Power of Attention, decrement compared to baseline: about 150 msec
Structure (SMILES): CCO [alcohol]
